Measurements: patent US20090197900A1, “METHODS OF TREATING HEART FAILURE AND RENAL DYSFUNCTION IN INDIVIDUALS WITH AN ADENOSINE A1 RECEPTOR ANTAGONIST” (priority 2007, published 2009)

System: subjects with acute CHF and renal impairment having BNP levels above 500 pg/mL
Assay: Separate analysis of the Example 1 trial for subjects with BNP levels exceeding 500 pg/mL (BNP subgroup)
Format: in vivo, human
Details: 30 mg KW-3902, FIG. 14
Description: More than 300 subjects hospitalized due to acute CHF requiring intravenous diuretic therapy to treat fluid overload, and presenting with creatinine clearance values between 20 to 80 mL/min were identified. The subjects were randomized to receive either placebo, or 10 mg, 20 mg or 30 mg intravenous KW-3902 per day. The subjects' BNP levels, NT-Pro-BNP, serum creatinine, weight, and NYHA Class were measured.
On day 1, KW-3902 (or placebo) was co-administered with intravenous furosemide (LASIX™). The specified dose of KW-3902 (or placebo) was infused over a four hour time period. Subjects received therapy for up to three days. Serum creatinine, weight, dyspnea, and worsening heart failure were assessed daily by the investigator on days 1 through 14. Worsening heart failure was investigator determined and required an increase in dose or reinstitution of LASIX, mechanical respiratory or circulatory assist measures, administration of intravenous positive […], or administration of intravenous vasodilators.
To compare the therapeutic effect of KW-3902 on individuals with different levels of BNP and or NT-Pro-BNP, the results of the trial discussed in Example 1 were separately analyzed to distinguish subjects with BNP levels exceeding 500 pg/mL. Approximately 75% of the subjects described in Example 1 fell within the subgroup having BNP levels above 500 pg/mL. […]

For CCCn1c(=O)c2[nH]c(C34CC5CC(CC3C5)C4)nc2n(CCC)c1=O [KW-3902, 8-(3-noradamantyl)-1,3-dipropylxanthine], the “individuals characterized as modified "Success"” value was “greater than 65%”.
